Test results reported in ChEMBL document CHEMBL1914390, “A new method for induced fit docking (GENIUS) and its application to virtual screening of novel HCV NS3-4A protease inhibitors” (Bioorg Med Chem, 2011).
One block for each compound: values may come before it.

What was measured:
[1] = Cytotoxicity against human HuH7 cells expressing chimeric gene encoding firefly luciferase and neomycin phosphotransferase assessed as cell proliferation after 72 hrs by MTT assay; format: cell-based, Huh-7
[2] = Cytotoxicity against human HuH7 cells expressing chimeric gene encoding firefly luciferase and neomycin phosphotransferase assessed as cell viability after 72 hrs by cell titer-glo luminescent assay; format: cell-based, Huh-7
[3] = test system: Hepacivirus hominis; assay: Ratio of EC50 for HCV to IC50 for HCV recombinant N-terminal histidine-tagged NS3/4A protease
[4] = Selectivity index, ratio of CC50 for human HuH7 cells expressing chimeric gene encoding firefly luciferase and neomycin phosphotransferase by cell titer-glo luminescent cell viability assay to EC50 for HCV; set-up: species or system Huh-7
[5] = Inhibition of HCV recombinant N-terminal histidine-tagged NS3/4A protease expressed Escherichia coli using Mca-Asp-Asp-Ile-Val-Pro-Cys-Ser-Met-Lys(Dnp)-Arg-Arg as fluorogenic substrate after 30 mins by FRET assay; set-up: species or system Hepacivirus hominis
[6] = test system: Hepatitis C virus; assay: Antiviral activity against Hepatitis C virus infected in human Huh7/Rep-Feo cells assessed as inhibition of viral replication after 72 hrs by luciferase assay; format: functional, organism-based, Hepacivirus hominis; conditions: Huh-7, 72 h
[7] = test system: Hepacivirus hominis; assay: Inhibition of HCV recombinant N-terminal histidine-tagged NS3/4A protease expressed Escherichia coli using Mca-Asp-Asp-Ile-Val-Pro-Cys-Ser-Met-Lys(Dnp)-Arg-Arg as fluorogenic substrate at 100 uM after 30 mins by FRET assay
[8] = Selectivity index, ratio of CC50 for human HuH7 cells expressing chimeric gene encoding firefly luciferase and neomycin phosphotransferase by MTT assay to EC50 for HCV; set-up: species or system Huh-7

Structure (SMILES): O=C(COc1ccc([N+](=O)[O-])cc1)N/N=C/c1ccccc1OC(=O)c1sc2ccccc2c1Cl
CC50 at 72 h [1]: > 125 µM
CC50 at 72 h [2]: 40 µM
Ratio [3]: 10
Ratio CC50/EC50 [4]: 2.1
IC50 [5]: 1.06 µM
EC50 [6]: 19.5 µM

Structure (SMILES): CCOc1cc(/C=N/NC(=O)C(C)Oc2ccc([N+](=O)[O-])cc2)ccc1OC(=O)c1ccc(Cl)cc1Cl (centres undefined)
CC50 at 72 h [1]: > 125 µM
inhibition [7]: 42.9%
EC50 [6]: 23 µM
Ratio CC50/EC50 [8]: >5.4

Structure (SMILES): CCC(C)Oc1ccc(/N=N/C(=O)c2cc3cc([N+](=O)[O-])ccc3o2)cc1Br (centres undefined)
CC50 at 72 h [1]: 57 µM
CC50 at 72 h [2]: 36 µM
Ratio CC50/EC50 [4]: 2.6
IC50 [5]: 22.7 µM
EC50 [6]: 13.5 µM

Structure (SMILES): CC(Oc1ccc([N+](=O)[O-])cc1)C(=O)N/N=C/c1ccccc1OC(=O)c1sc2ccccc2c1Cl (centres undefined)
CC50 at 72 h [1]: > 125 µM
CC50 at 72 h [2]: 19 µM
Ratio [3]: 10
Ratio CC50/EC50 [4]: 1.5
IC50 [5]: 1.01 µM
EC50 [6]: 12.5 µM

IC50 [5]: 17.1 µM
Structure (SMILES): COc1cc(/C=N/NC(=O)c2cc3cc([N+](=O)[O-])ccc3o2)c(C)cc1OCc1ccc([N+](=O)[O-])cc1

IC50 [5]: 12.3 µM
EC50 [6]: 93 µM
Structure (SMILES): COc1cc(/C=N/NC(=O)COc2ccc([N+](=O)[O-])cc2)ccc1OC(=O)c1sc2ccccc2c1Cl
CC50 at 72 h [1]: > 125 µM
Ratio [3]: 10

IC50 [5]: 11.9 µM
Structure (SMILES): CCc1cc(OCc2ccc([N+](=O)[O-])cc2)c(OC)cc1/C=N/NC(=O)c1cc2cc([N+](=O)[O-])ccc2o1

IC50 [5]: 4.08 µM
EC50 [6]: 121 µM
Structure (SMILES): COc1cc(/C=N/NC(=O)C(C)Oc2ccc([N+](=O)[O-])cc2)ccc1OC(=O)c1sc2ccccc2c1Cl (centres undefined)
CC50 at 72 h [1]: > 125 µM
Ratio [3]: 10

IC50 [5]: 8.07 µM
EC50 [6]: > 125 µM
Structure (SMILES): C=CCc1cc(/N=N/C(=O)c2cc3cc([N+](=O)[O-])ccc3o2)cc(OCC)c1OCc1ccc(Cl)cc1
CC50 at 72 h [1]: > 125 µM

IC50 [5]: 8.34 µM
Structure (SMILES): COc1cc(/C=N/NC(=O)c2cc3cc([N+](=O)[O-])ccc3o2)cc([N+](=O)[O-])c1OCc1ccc([N+](=O)[O-])cc1

Structure (SMILES): COc1ccc(C(=O)Cc2ccc3ccccc3c2/C=N/NC(=O)COc2ccc([N+](=O)[O-])cc2)cc1
CC50 at 72 h [1]: > 125 µM
CC50 at 72 h [2]: 9 µM
Ratio CC50/EC50 [4]: 1.1
IC50 [5]: 64.3 µM
EC50 [6]: 8.5 µM

Structure (SMILES): COc1cc(/C=N/NC(=O)c2cc3cc([N+](=O)[O-])ccc3o2)ccc1OCc1ccc([N+](=O)[O-])cc1
CC50 at 72 h [1]: > 125 µM
CC50 at 72 h [2]: > 80 µM
Ratio CC50/EC50 [4]: >9.3
IC50 [5]: 8.59 µM
EC50 [6]: 12 µM

Structure (SMILES): CCCOc1ccc(C(=O)Oc2ccc(/C=N/NC(=O)COc3ccc([N+](=O)[O-])cc3)cc2OCC)cc1
CC50 at 72 h [1]: > 125 µM
inhibition [7]: 38%
EC50 [6]: 13 µM
Ratio CC50/EC50 [8]: >9.6
